The text below walks through data of patent publication US20250161307A1, “PYRAZOLOPYRIMIDINES AS MODULATORS OF SPERMINE OXIDASE” (Janssen Pharmaceutica NV, priority 2022, published 2025).

For one assay, the target named is SMOX (Homo sapiens (Human), UniProt Q9NWM0). In words: Human SMOX assay (HyPerBlu chemiluminescent detection of hydrogen peroxide). It is filed as biochemical. The following applies: 2.5 nM full length hSMOX, spermine substrate, 1 h at room temperature, luminescence read; read-out: SMOx_IC50. As for the experimental part: (§1) The direct detection of hydrogen peroxide produced from the enzymatic reaction of hSMOX or hPAOX in a biochemical assay format was measured using HyPerBlu (Lumigen, Southfield, MI), a small molecule boronate probe that reacts with hydrogen peroxide to generate a chemiluminescent signal. Inhibition of hSMOX or hPAOX enzyme results in a decrease in luminescence.
Test compounds (75 nL) dissolved in DMSO were added to a 384-well white assay plate (Greiner Bio-one, catalog #784075) using an ECHO Acoustic Dispenser (Labcyte). Each compound was serially diluted 3-fold in DMSO to prepare an 11-point dose response curve (columns 1-22). Column 23 and 24 contained 75 nL of 2 mM chlorhexidine and DMSO, respectively, to represent the 100% inhibited versus the neutral control reactions.
Subsequently, 3 μL/well of the substrate solution prepared in assay buffer (10 mM Hepes, pH 7.4, 150 mM NaCl, 1 mM EGTA, 0.01% Pluronic F-127, 0.05% ovalbumin) was dispensed into the assay plate followed by 3 μL/well of full length hSMOX enzyme with an N-terminal His tag from E. coli prepared in assay buffer to initiate the reactions. After a 1 h incubation at room temperature, 6 μL/well of HyPerBlu was added. After a 30 min incubation, the hydrogen peroxide product generated from the hSMOX reactions was measured using an endpoint luminescence read on the PHERAStar FS/FSX microplate reader (BMG LABTECH).
The final assay conditions included 10 mM Hepes, pH 7.4, 150 mM NaCl, 1 mM EGTA, 0.01% Pluronic F-127, 0.05% ovalbumin, 2.5 nM hSMOX, 30 µM spermine, and 1.25% DMSO.
Dose-response curves were fit and compound IC50 values were determined using Genedata Screener (Genedata AG).

The target of another assay is hPAOX (Homo sapiens (Human), UniProt Q6QHF9). Nature of the assay: Human PAOX assay (HyPerBlu chemiluminescent detection of hydrogen peroxide). It counts as biochemical. As to conditions: 60 pM recombinant PAOX, 20 μM N-acetylspermine substrate. As for the experimental part:
as §1
The hPAOX assay was run and the data analyzed similarly to the hSMOX assay described above, except the reactions contained 60 pM recombinant PAOX with an N-terminal His tag expressed from sf9 insect cells and used 20 μM N-acetylspermine as the substrate.

Where a name gives a salt, the structure may show the parent alone.

Chain of hPAOX (Q6QHF9 whole entry): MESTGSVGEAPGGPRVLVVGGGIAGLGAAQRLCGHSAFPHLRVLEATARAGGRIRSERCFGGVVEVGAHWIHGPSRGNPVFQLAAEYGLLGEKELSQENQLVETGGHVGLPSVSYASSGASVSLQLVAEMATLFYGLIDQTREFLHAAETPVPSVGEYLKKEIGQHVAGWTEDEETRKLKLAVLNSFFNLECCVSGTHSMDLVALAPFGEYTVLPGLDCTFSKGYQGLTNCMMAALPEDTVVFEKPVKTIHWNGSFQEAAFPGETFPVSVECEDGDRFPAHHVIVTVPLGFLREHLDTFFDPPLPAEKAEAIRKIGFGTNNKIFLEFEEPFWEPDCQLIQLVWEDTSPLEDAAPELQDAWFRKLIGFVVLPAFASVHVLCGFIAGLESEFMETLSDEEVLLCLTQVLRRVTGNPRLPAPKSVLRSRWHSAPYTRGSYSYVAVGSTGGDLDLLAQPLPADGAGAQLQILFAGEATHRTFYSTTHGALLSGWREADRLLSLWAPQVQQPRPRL
Chain of SMOX (Q9NWM0 whole entry): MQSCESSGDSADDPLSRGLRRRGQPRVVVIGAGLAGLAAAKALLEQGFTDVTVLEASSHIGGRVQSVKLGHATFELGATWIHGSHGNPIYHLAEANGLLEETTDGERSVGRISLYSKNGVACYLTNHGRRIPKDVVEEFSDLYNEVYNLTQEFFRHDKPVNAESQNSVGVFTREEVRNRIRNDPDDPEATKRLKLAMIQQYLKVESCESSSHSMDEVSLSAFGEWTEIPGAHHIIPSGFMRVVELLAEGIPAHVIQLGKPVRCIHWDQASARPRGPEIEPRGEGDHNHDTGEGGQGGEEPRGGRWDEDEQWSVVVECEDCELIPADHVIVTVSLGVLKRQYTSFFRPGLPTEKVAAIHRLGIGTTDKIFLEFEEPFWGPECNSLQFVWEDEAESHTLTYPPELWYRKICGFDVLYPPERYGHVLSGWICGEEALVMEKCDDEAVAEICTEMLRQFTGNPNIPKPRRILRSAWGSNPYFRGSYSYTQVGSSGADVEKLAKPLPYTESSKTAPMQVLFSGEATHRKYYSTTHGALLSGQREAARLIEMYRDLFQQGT

For `CN1CC[C@@H](NC(=O)c2cc3nc(-c4ccccc4)cc(N4CCCCC4)n3n2)C1` (single isomer, unassigned) [Example 72, (*R)—N-(1-methylpyrrolidin-3-yl)-5-phenyl-7-(piperidin-1-yl)pyrazolo[1,5-a]pyrimidine-2-carboxamide trifluoroacetate], the figures for the IC50 at SMOX and at hPAOX were 1010 nM and 7140 nM, respectively.

`CN1CC[C@H](NC(=O)c2cc3nc(-c4ccccc4)cc(N4CCCCC4)n3n2)C1` (single isomer, unassigned) [Example 73, (*S)—N-(1-methylpyrrolidin-3-yl)-5-phenyl-7-(piperidin-1-yl)pyrazolo[1,5-a]pyrimidine-2-carboxamide trifluoroacetate]: the IC50 on SMOX is 1030 nM; at hPAOX, 4210 nM.

On to `O=C(NC1CN(Cc2ccccc2)C1)c1cc2nc(-c3ccccc3)cc(-c3ccccc3)n2n1` [Example 3, N-(1-Benzylazetidin-3-yl)-5,7-diphenylpyrazolo[1,5-a]pyrimidine-2-carboxamide], for which the IC50 on SMOX came out at 4360 nM; on hPAOX, 4540 nM.

Take `CC(C)N1CCC(NC(=O)c2cc3nc(-c4ccccc4)cc(-c4ccccc4)n3n2)C1` (stereo not shown) [Example 4, N-(1-Isopropylpyrrolidin-3-yl)-5,7-diphenylpyrazolo[1,5-a]pyrimidine-2-carboxamide]: the IC50 came out at 599 nM at SMOX and 8720 nM on hPAOX.

With `CCN1CCC(NC(=O)c2cc3nc(-c4ccccc4)cc(-c4ccccc4)n3n2)C1` (stereo not shown) [Example 5, N-(1-Ethylpyrrolidin-3-yl)-5,7-diphenylpyrazolo[1,5-a]pyrimidine-2-carboxamide], the IC50 on SMOX was 367 nM; at hPAOX it was 914 nM.

For the molecule `CN1CCC(NC(=O)c2cc3nc(-c4ccccc4)cc(-c4ccccc4)n3n2)C1` (stereo not shown) [Example 6, N-(1-Methylpyrrolidin-3-yl)-5,7-diphenylpyrazolo[1,5-a]pyrimidine-2-carboxamide], the IC50 on SMOX was found to be 230 nM; at hPAOX, 4950 nM.

`CN1CC[C@H](NC(=O)c2cc3nc(-c4ccccc4)cc(-c4ccccc4)n3n2)C1` [Example 7, (S)—N-(1-Methylpyrrolidin-3-yl)-5,7-diphenylpyrazolo[1,5-a]pyrimidine-2-carboxamide]: the IC50 was 712 nM on SMOX and 1330 nM on hPAOX.

In the case of `CN1CC[C@@H](NC(=O)c2cc3nc(-c4ccccc4)cc(-c4ccccc4)n3n2)C1` [Example 8, (R)—N-(1-Methylpyrrolidin-3-yl)-5,7-diphenylpyrazolo[1,5-a]pyrimidine-2-carboxamide], the IC50 on SMOX amounted to 393 nM; at hPAOX it was 10700 nM.

On to `O=C(NCCCc1ccncc1)c1cc2nc(-c3ccccc3)cc(-c3ccccc3)n2n1` [Example 9, 5,7-Diphenyl-N-(3-(pyridin-4-yl)propyl)pyrazolo[1,5-a]pyrimidine-2-carboxamide], for which the results for the IC50 on SMOX and on hPAOX were 195 nM and 1120 nM, respectively.

As to `CN(C)CCNC(=O)c1cc2nc(-c3ccccc3)cc(-c3ccccc3)n2n1` [Example 10, N-(2-(Dimethylamino)ethyl)-5,7-diphenylpyrazolo[1,5-a]pyrimidine-2-carboxamide], the values for the IC50 on SMOX and on hPAOX were 617 nM and 1380 nM, respectively.

Consider `CN(CCCn1ccnc1)C(=O)c1cc2nc(-c3ccccc3)cc(-c3ccccc3)n2n1` [Example 11, N-(3-(1H-Imidazol-1-yl)propyl)-N-methyl-5,7-diphenylpyrazolo[1,5-a]pyrimidine-2-carboxamide], for which the IC50 on SMOX was 567 nM; on hPAOX it was 10300 nM.

Turning to `O=C(NCCCN1CCOCC1)c1cc2nc(-c3ccccc3)cc(-c3ccccc3)n2n1` [Example 13, N-(3-Morpholinopropyl)-5,7-diphenylpyrazolo[1,5-a]pyrimidine-2-carboxamide], the values for the IC50 on SMOX and on hPAOX were 604 nM and 5260 nM, respectively.

Regarding `COc1ccc(-c2cc(-c3ccccc3)nc3cc(C(=O)NCCCn4ccnc4)nn23)cc1` [Example 79, N-(3-(1H-imidazol-1-yl)propyl)-7-(4-methoxyphenyl)-5-phenylpyrazolo[1,5-a]pyrimidine-2-carboxamide], at SMOX, the IC50 amounted to 242 nM.
